Legend:
Assay type in all cases: cell-based
GOT3 and SA4 cell lines = assay: High throughput drug sensitivity and resistance test, average over cell lines (anagrelide combination); conditions: anagrelide combination, average of SA4 and GOT3; aDSS higher than 3.0 = synergy
Experimental: (§1) Cell lines. PDE3A-positive (GIST882, SA4, and GOT3) and PDE3A-negative cell lines (93TT449, 94T778, LPS141, MLS17656-92, MLS402-91, and SW872) were cultured in RPMI Medium 1640 (Gibco) with 5-, 10- or 20% fetal bovine serum (FBS, gibco), 100 U/mL of penicillin, 100 […] and 0.03 mg/mL of L-glutamine (Pen Strep Glut, Gibco, 10378-016) in a humidified, 5% CO2 atmosphere at 37° C.
(§2) High throughput drug sensitivity and resistance test. A sensitivity and resistance of cancer cell lines to 528 compounds were investigated in 9 cell lines (GIST882, SA4, GOT3, 93TT449, 94T778, LPS141, MLS17656-92, MLS402-91, and SW872). In addition, same compounds were investigated together with anagrelide hydrochloride (100 nM) treatment in the PDE3A low expressing cell lines SA4 and GOT3, and with BAY2666605 (40 nM) in all PDE3A-positive cell lines GIST882, SA4 and GOT3. The compounds were dissolved in 100% dimethyl sulfoxide or water and plated in 10-fold dilutions covering a 10,000-fold concentration range on flat clear bottom 384-well microplates as described in detail earlier (Pulkka O P, et al 2019). A cell viability was measured after 72 hours using CellTiter-Glo Cell Viability assay (Promega Inc.) and PHERAstar FS plate reader (BMG Labtech). The data were normalized to negative (0.01% dimethyl sulfoxide only) and positive (100 μmol/L benzethonium chloride) controls.
(§3) A four-parameter logistic dose-response curves were estimated by using the Marquardt-Levenberg algorithm and Breeze analysis platform. Drug responses to the test compounds were measured using the drug sensitivity score (DSS). Drug synergy partners, which were common in investigated cell lines were identified as following: DSS value of a single agent was subtracted from the DSS value of anagrelide-drug combination in single cell lines. […] The analysis was repeated by using BAY2666605 as a PDE3A modulator.

GOT3 cell line [1] = assay: High throughput drug sensitivity and resistance test (CellTiter-Glo, 72 hours); conditions: GOT3; for GOT3 cell line: DSS(combo (anagrelide))-DSS(drug): drug combined with anagrelide hydrochloride (100 nM) minus drug alone; for GOT3 cell line: DSS(combo (BAY2666605))-DSS(drug): drug combined with BAY2666605 (40 nM) minus drug alone
Experimental: as §1, §2, §3

SA4 cell line [2] = assay: as above; conditions: SA4; for SA4 cell line: DSS(combo (anagrelide))-DSS(drug): drug combined with anagrelide hydrochloride (100 nM) minus drug alone; for SA4 cell line: DSS(combo (BAY2666605))-DSS(drug): drug combined with BAY2666605 (40 nM) minus drug alone
Experimental: as §1, §2, §3

GIST882 cell line [3] = assay: Drug combination testing with concentration matrices, SynergyFinder 2.0; conditions: combination with anagrelide, seven-concentration matrices
Experimental: (§4) Drug combination testing with anagrelide and 12 selected drugs was performed as described above but with selected drugs using drug concentration matrices covering seven different concentrations with 3 replicate sample of each combinations and in two replicate assays. […] The tool implements synergy scoring with four major reference models: HSA, Loewe, Bliss and ZIP models. The degree of a drug combination effect can be readily visualized as a synergy landscape map over the dose matrix and ZIP synergy score.

GOT3 cell line [4] = assay: as above; conditions: combination with anagrelide, seven-concentration matrices
Experimental: as §4

SA4 cell line [5] = assay: as above; conditions: combination with anagrelide, seven-concentration matrices
Experimental: as §4

[6] = test system: GIST882, GOT3 and SA4 cell lines; assay: High throughput drug sensitivity and resistance test, average over cell lines (BAY2666605 combination); conditions: for synergy in high-throughput screening (in words): with anagrelide (GOT3, SA4) or BAY2666605 (GIST882, GOT3, SA4); for Average DSS (aDSS): BAY2666605 combination, average of GIST882, SA4 and GOT3, aDSS higher than 3.0 = synergy
Experimental: as §1, §2, §3

[7] = test system: GIST882, SA4 and GOT3 cell lines; assay: Cell viability assay (96 well, CellTiter-Glo, 72 hours); conditions: FIG. 2, cell line not stated
Experimental: Cell viability assay. Cells were plated on 96 Well White/Clear Tissue Culture Treated Plate (FALCON, 353377) 24 hours prior to medium change with drugs. Viabilities of cells in different treatments were evaluated 72 hours after treatment incubation with CellTiter-Glo® Luminescent Cell Viability Assay (G7572, Promega) following manufacturer's instruction. Reagent and cells stabilized to room temperature. Reagent added 100 μl/well, shaken for 2 minutes at room temperature and incubated for 10 min at room temperature before measuring the luminescence by using Hidex Sence microplate reader (Hidex oy). Growth medium was used to exclude background signal from the results.

GIST882 cell line [8] = assay: High throughput drug sensitivity and resistance test (CellTiter-Glo, 72 hours); conditions: drug combined with BAY2666605 (40 nM) minus drug alone
Experimental: High throughput drug sensitivity and resistance test. […] In addition, same compounds were investigated together with anagrelide hydrochloride (100 nM) treatment in the PDE3A low expressing cell lines SA4 and GOT3, and with BAY2666605 (40 nM) in all PDE3A-positive cell lines GIST882, SA4 and GOT3. […] A cell viability was measured after 72 hours using CellTiter-Glo Cell Viability assay (Promega Inc.) and PHERAstar FS plate reader (BMG Labtech). The data were normalized to negative (0.01% dimethyl sulfoxide only) and positive (100 μmol/L benzethonium chloride) controls.
as §3

Compound | Average DSS (aDSS) (GOT3 and SA4 cell lines) | GOT3 cell line: DSS(combo (anagrelide))-DSS(drug) (GOT3 cell line [1]) | SA4 cell line: DSS(combo (anagrelide))-DSS(drug) (SA4 cell line [2]) | Average ZIP synergy score (GIST882 cell line [3]) | Average ZIP synergy score (GOT3 cell line [4]) | Average ZIP synergy score (SA4 cell line [5]) | synergy in high-throughput screening (in words) [6] | synergy with Bcl-family inhibitor A-1155463 (in words) [7] | synergy with Bcl-family inhibitor A-1155463 (in words) ([7]; listed as cilostazol) | GOT3 cell line: DSS(combo (BAY2666605))-DSS(drug) (GOT3 cell line [1]) | SA4 cell line: DSS(combo (BAY2666605))-DSS(drug) (SA4 cell line [2]) | Average DSS (aDSS) [6] | GIST882 cell line: DSS(combo (BAY2666605))-DSS(drug) (GIST882 cell line [8])
CCN1C(=O)CNc2ncc(-c3ccc(-c4nc[nH]n4)nc3C)nc21 [CC-115] | 5.15 | 0.8 | 9.5 | 3.1 | 1.6 | 4.1 | synergistic | – | – | – | – | – | –
O=C1CCc2cc(OCCCCc3nnnn3C3CCCCC3)ccc2N1 [Cilostazol] | – | – | – | – | – | – | – | does not show synergy | not however achieved | – | – | – | –
Cc1ccc(NS(=O)(=O)c2cccc(C#N)c2)c2[nH]cc(C#N)c12 [E7820] | 12.85 | 7.5 | 18.2 | 3 | 1.6 | 14.8 | synergistic | – | – | – | – | – | –
CO[C@H]1C[C@@H]2CC[C@@H](C)[C@@](O)(O2)C(=O)C(=O)N2CCCC[C@H]2C(=O)O[C@H]([C@H](C)C[C@@H]2CC[C@@H](OCCO)[C@H](OC)C2)CC(=O)[C@H](C)/C=C(\C)[C@@H](O)[C@@H](OC)C(=O)[C@H](C)C[C@H](C)/C=C/C=C/C=C/1C [Everolimus, everolimus] | 5.55 | 3 | 8.1 | 5 | 2.3 | 5.5 | synergistic | – | – | 4.1 | 12.4 | 6.5 | 3
Cc1nc(Nc2n[nH]c3c2CN(C(=O)N[C@H](CN(C)C)c2ccccc2)C3(C)C)c2sccc2n1 [PF-03758309] | 11.9 | 3.7 | 20.1 | 11.5 | 8.5 | 16.8 | synergistic | – | – | −3.6 | 13.4 | 3.4 | 0.5
NS(=O)(=O)OC[C@@H]1C[C@@H](n2ccc3c(N[C@H]4CCc5ccccc54)ncnc32)C[C@@H]1O [Pevonedistat, pevonedistat] | 8.25 | 2.7 | 13.8 | 4.6 | 12.7 | 7.8 | synergistic | – | – | 6.2 | 7 | 7.5 | 9.3
Cn1cc(CNCC2CCN(c3ncc(C(=O)NO)cn3)CC2)c2ccccc21 [Quisinostat, quisinostat] | 8.85 | 1.9 | 15.8 | 6.5 | 6.9 | 8.7 | synergistic | – | – | 8 | 16.2 | 11.0 | 8.7
CO[C@H]1C[C@@H]2CC[C@@H](C)[C@@](O)(O2)C(=O)C(=O)N2CCCC[C@H]2C(=O)O[C@H]([C@H](C)C[C@@H]2CC[C@@H](O)[C@H](OC)C2)CC(=O)[C@H](C)/C=C(\C)[C@@H](O)[C@@H](OC)C(=O)[C@H](C)C[C@H](C)/C=C/C=C/C=C/1C [Sirolimus, sirolimus] | 6.45 | 3.4 | 9.5 | – | – | – | – | – | – | 2 | 7.9 | 4.4 | 3.4
CO[C@H]1C[C@@H]2CC[C@@H](C)[C@@](O)(O2)C(=O)C(=O)N2CCCC[C@H]2C(=O)O[C@H]([C@H](C)C[C@@H]2CC[C@@H](OC(=O)C(C)(CO)CO)[C@H](OC)C2)CC(=O)[C@H](C)/C=C(\C)[C@@H](O)[C@@H](OC)C(=O)[C@H](C)C[C@H](C)/C=C/C=C/C=C/1C [Temsirolimus, temsirolimus] | 5.45 | 1.1 | 9.8 | 2.8 | 0.4 | 3.6 | synergistic | – | – | 1.2 | 5.3 | 4.6 | 7.4
CC(C)C[C@@H](C(=O)N[C@H](C(=O)OC1CCCC1)c1ccccc1)[C@H](O)C(=O)NO [Tosedostat, tosedostat] | 3.8 | 2.5 | 5.1 | – | – | – | synergistic | – | – | 6.7 | 14.6 | 14.1 | 21
CC1(C)CCC(CN2CCN(c3ccc(C(=O)NS(=O)(=O)c4ccc(NCC5CCOCC5)c([N+](=O)[O-])c4)c(Oc4cnc5[nH]ccc5c4)c3)CC2)=C(c2ccc(Cl)cc2)C1 [Venetoclax, venetoclax] | 3.1 | 0 | 6.2 | – | – | – | – | – | – | 0.2 | 29 | 13.8 | 12.2
O=C(CCCCCCC(=O)Nc1ccccc1)NO [Vorinostat, vorinostat] | 3.25 | −0.7 | 7.2 | – | – | – | synergistic | – | – | 1.6 | 13.7 | 6.5 | 4.2

Source: patent US20250041294A1, “Synergistic compositions for use in the treatment of cancer” (Sartar Therapeutics Oy, priority 2021, published 2025)
